In paper PMC9864514, “Evaluation of the Local Anesthetic Activity, Acute Toxicity, and Structure–Toxicity Relationship in Series of Synthesized 1-Aryltetrahydroisoquinoline Alkaloid Derivatives In Vivo and In Silico” (Molecules, 2023):
“Also recorded” adds a separate entry of the source.

Test system: not listed separately
Assay: Acute toxicity and resorptive action in white mice, intragastric administration
Type: in vivo
Conditions: mouse, in vivo, po, intragastric administration, N = 10, Litchfield–Wilcoxon
Method: (§1) The acute toxicity and resorptive action were determined in white mice weighing 20–24 g by gradual oral administration at doses of 1–5000 mg/kg.
(§2) The animals were kept under standard nursery conditions with a natural 12-h light-dark cycle, at an air temperature of 20 ± 2 °C. The animals had unlimited access to food and water. The experiments were performed in accordance with the International Convention for the Protection of Vertebrate Animals used for Experimental and Scientific Purposes (Strasbourg, 1986). Each substance was tested on 10 mice and LD50 was determined graphically by the well-known Litchfield–Wilcoxon method.

Structure (SMILES)	LD50 [mg/kg]
COc1cc2c(cc1OC)C(c1ccc([N+](=O)[O-])cc1)NCC2 (stereo not shown) [Compound 3m, 1-(4′-Nitrophenyl)-6,7-dimethoxy-1,2,3,4-tetrahydroisoquinoline]	1950
COc1cc2c(cc1OC)C(c1cc3c(cc1Br)OCO3)NCC2 (stereo not shown) [Compound 3j, 1-(2′-Bromo-4′,5′-methylenedioxyphenyl)-6,7-dimethoxy-1,2,3,4-tetrahydroisoquinoline]	730
COc1cc(Br)c(C2NCCc3cc(OC)c(OC)cc32)cc1OC (stereo not shown) [Compound 3g, 1-(2′-Bromo-4′,5′-dimethoxyphenyl)-6,7-dimethoxy-1,2,3,4-tetrahydroisoquinoline]	290
COc1cc(Br)c(C2NCCc3cc(OC)c(OC)cc32)cc1O (stereo not shown) [Compound 3h, 1-(2′-Bromo-5′-hydroxy-4′-methoxyphenyl)-6,7-dimethoxy-1,2,3,4-tetrahydroisoquinoline]	550
COc1ccc(C2NCCc3cc(OC)c(OC)cc32)cc1OC (stereo not shown) [Compound 3d, 1-(3′,4′-Dimethoxyphenyl)-6,7-dimethoxy-1,2,3,4-tetrahydroisoquinoline]	670
COc1cc2c(cc1OC)C(c1cccc([N+](=O)[O-])c1)NCC2 (stereo not shown) [Compound 3n, 1-(3′-Nitrophenyl)-6,7-dimethoxy-1,2,3,4-tetrahydroisoquinoline]	460 ± 598
COc1cc2c(cc1OC)C(c1ccccc1O)NCC2 (stereo not shown) [Compound 3b, 1-(2′-Hydroxyphenyl)-6,7-dimethoxy-1,2,3,4-tetrahydroisoquinoline]	375
COc1cc2c(cc1OC)C(c1ccccc1)NCC2 (stereo not shown) [Compound 3a, 1-(Phenyl)-6,7-dimethoxy-1,2,3,4-tetrahydroisoquinoline]	280
COc1cc2c(cc1OC)C(c1cccc(Br)c1)NCC2 (stereo not shown) [Compound 3o, 1-(3′-Bromophenyl)-6,7-dimethoxy-1,2,3,4-tetrahydroisoquinoline]	710
COc1cc2c(cc1OC)C(c1ccc(Cl)cc1)NCC2 (stereo not shown) [Compound 3r, 1-(4′-Chlorophenyl)-6,7-dimethoxy-1,2,3,4-tetrahydroisoquinoline]	740

Test system: white mice
Assay: as above
Type: in vivo
Conditions: intragastric administration, N = 10, Litchfield–Wilcoxon
Method: as §1, §2

Structure (SMILES)	LD50
COc1cc2c(cc1OC)C(c1cccc([N+](=O)[O-])c1)NCC2 (stereo not shown) [Compound 3n, 1-(3′-Nitrophenyl)-6,7-dimethoxy-1,2,3,4-tetrahydroisoquinoline]	525 (460.5 ± 598.5) mg/kg

Same assay, conditions: intragastric, relative to parent compound 3a

Structure (SMILES)	Decrease of acute toxicity compared with 3a
COc1cc2c(cc1OC)C(c1cc3c(cc1Br)OCO3)NCC2 (stereo not shown) [Compound 3j, 1-(2′-Bromo-4′,5′-methylenedioxyphenyl)-6,7-dimethoxy-1,2,3,4-tetrahydroisoquinoline]	2.5 fold
COc1cc(Br)c(C2NCCc3cc(OC)c(OC)cc32)cc1OC (stereo not shown) [Compound 3g, 1-(2′-Bromo-4′,5′-dimethoxyphenyl)-6,7-dimethoxy-1,2,3,4-tetrahydroisoquinoline]	no significant change in acute toxicity
COc1cc(Br)c(C2NCCc3cc(OC)c(OC)cc32)cc1O (stereo not shown) [Compound 3h, 1-(2′-Bromo-5′-hydroxy-4′-methoxyphenyl)-6,7-dimethoxy-1,2,3,4-tetrahydroisoquinoline]	about 2 fold
COc1ccc(C2NCCc3cc(OC)c(OC)cc32)cc1OC (stereo not shown) [Compound 3d, 1-(3′,4′-Dimethoxyphenyl)-6,7-dimethoxy-1,2,3,4-tetrahydroisoquinoline]	2.5–2.6 fold
COc1cc2c(cc1OC)C(c1ccccc1O)NCC2 (stereo not shown) [Compound 3b, 1-(2′-Hydroxyphenyl)-6,7-dimethoxy-1,2,3,4-tetrahydroisoquinoline]	did not result in a significant decrease of toxicity
COc1cc2c(cc1OC)C(c1cccc(Br)c1)NCC2 (stereo not shown) [Compound 3o, 1-(3′-Bromophenyl)-6,7-dimethoxy-1,2,3,4-tetrahydroisoquinoline]	2.5–2.6 fold
COc1cc2c(cc1OC)C(c1ccc(Cl)cc1)NCC2 (stereo not shown) [Compound 3r, 1-(4′-Chlorophenyl)-6,7-dimethoxy-1,2,3,4-tetrahydroisoquinoline]	2.5–2.6 fold

Test system: rabbit eye cornea
Assay: Local anesthetic activity, rabbit eye cornea terminal anesthesia test
Type: in vivo
Conditions: rabbit corneal model, 1% aqueous solution
Method: Local anesthetic activity was evaluated using the rabbit eye cornea terminal anesthesia test on 2.0–2.5 kg male chinchilla rabbits after introduction of total 0.4 mL (0.2 mL twice with an interval of 30 s) of 1.0 % solutions of the studied substances. Lidocaine was used as an etalon drug. Each substance was tested on three rabbits.

Structure (SMILES)	Onset of Anesthesia [min]	Total Duration of Anesthesia [min]
COc1cc2c(cc1OC)C(c1ccc([N+](=O)[O-])cc1)NCC2 (stereo not shown) [Compound 3m, 1-(4′-Nitrophenyl)-6,7-dimethoxy-1,2,3,4-tetrahydroisoquinoline]	3.0 ± 0.4	48.0 ± 2.8
COc1cc2c(cc1OC)C(c1cc3c(cc1Br)OCO3)NCC2 (stereo not shown) [Compound 3j, 1-(2′-Bromo-4′,5′-methylenedioxyphenyl)-6,7-dimethoxy-1,2,3,4-tetrahydroisoquinoline]	2.0 ± 1.0	52.0 ± 4.0
COc1cc(Br)c(C2NCCc3cc(OC)c(OC)cc32)cc1OC (stereo not shown) [Compound 3g, 1-(2′-Bromo-4′,5′-dimethoxyphenyl)-6,7-dimethoxy-1,2,3,4-tetrahydroisoquinoline]	2.0 ± 1.0	44.0 ± 3.5
COc1cc(Br)c(C2NCCc3cc(OC)c(OC)cc32)cc1O (stereo not shown) [Compound 3h, 1-(2′-Bromo-5′-hydroxy-4′-methoxyphenyl)-6,7-dimethoxy-1,2,3,4-tetrahydroisoquinoline]	1.0 ± 0.4	40.0 ± 3.2
COc1ccc(C2NCCc3cc(OC)c(OC)cc32)cc1OC (stereo not shown) [Compound 3d, 1-(3′,4′-Dimethoxyphenyl)-6,7-dimethoxy-1,2,3,4-tetrahydroisoquinoline]	2.0 ± 0.7	70.0 ± 2.1
COc1cc2c(cc1OC)C(c1cccc([N+](=O)[O-])c1)NCC2 (stereo not shown) [Compound 3n, 1-(3′-Nitrophenyl)-6,7-dimethoxy-1,2,3,4-tetrahydroisoquinoline]	3.0 ± 1.0	37.0 ± 3.2
COc1cc2c(cc1OC)C(c1ccccc1O)NCC2 (stereo not shown) [Compound 3b, 1-(2′-Hydroxyphenyl)-6,7-dimethoxy-1,2,3,4-tetrahydroisoquinoline]	1.0 ± 0.4	44.0 ± 1.5
COc1cc2c(cc1OC)C(c1ccccc1)NCC2 (stereo not shown) [Compound 3a, 1-(Phenyl)-6,7-dimethoxy-1,2,3,4-tetrahydroisoquinoline]	3.0 ± 1.1	53.0 ± 4.6
COc1cc2c(cc1OC)C(c1cccc(Br)c1)NCC2 (stereo not shown) [Compound 3o, 1-(3′-Bromophenyl)-6,7-dimethoxy-1,2,3,4-tetrahydroisoquinoline]	2.0 ± 0.4	115.0 ± 3.8
COc1cc2c(cc1OC)C(c1ccc(Cl)cc1)NCC2 (stereo not shown) [Compound 3r, 1-(4′-Chlorophenyl)-6,7-dimethoxy-1,2,3,4-tetrahydroisoquinoline]	2.0 ± 0.6	35.0 ± 3.4

Same assay, conditions: rabbit corneal model, 1% aqueous solution; percentage of the anesthetic activity of lidocaine (=100%)

Structure (SMILES)	Duration of Complete Anesthesia
COc1cc2c(cc1OC)C(c1ccc([N+](=O)[O-])cc1)NCC2 (stereo not shown) [Compound 3m, 1-(4′-Nitrophenyl)-6,7-dimethoxy-1,2,3,4-tetrahydroisoquinoline]	+80%
COc1cc2c(cc1OC)C(c1cc3c(cc1Br)OCO3)NCC2 (stereo not shown) [Compound 3j, 1-(2′-Bromo-4′,5′-methylenedioxyphenyl)-6,7-dimethoxy-1,2,3,4-tetrahydroisoquinoline]	+90%
COc1cc(Br)c(C2NCCc3cc(OC)c(OC)cc32)cc1OC (stereo not shown) [Compound 3g, 1-(2′-Bromo-4′,5′-dimethoxyphenyl)-6,7-dimethoxy-1,2,3,4-tetrahydroisoquinoline]	+90%
COc1cc(Br)c(C2NCCc3cc(OC)c(OC)cc32)cc1O (stereo not shown) [Compound 3h, 1-(2′-Bromo-5′-hydroxy-4′-methoxyphenyl)-6,7-dimethoxy-1,2,3,4-tetrahydroisoquinoline]	+170%
COc1ccc(C2NCCc3cc(OC)c(OC)cc32)cc1OC (stereo not shown) [Compound 3d, 1-(3′,4′-Dimethoxyphenyl)-6,7-dimethoxy-1,2,3,4-tetrahydroisoquinoline]	+60%
COc1cc2c(cc1OC)C(c1cccc([N+](=O)[O-])c1)NCC2 (stereo not shown) [Compound 3n, 1-(3′-Nitrophenyl)-6,7-dimethoxy-1,2,3,4-tetrahydroisoquinoline]	+260%
COc1cc2c(cc1OC)C(c1ccccc1O)NCC2 (stereo not shown) [Compound 3b, 1-(2′-Hydroxyphenyl)-6,7-dimethoxy-1,2,3,4-tetrahydroisoquinoline]	+50%
COc1cc2c(cc1OC)C(c1ccccc1)NCC2 (stereo not shown) [Compound 3a, 1-(Phenyl)-6,7-dimethoxy-1,2,3,4-tetrahydroisoquinoline]	+50%
COc1cc2c(cc1OC)C(c1cccc(Br)c1)NCC2 (stereo not shown) [Compound 3o, 1-(3′-Bromophenyl)-6,7-dimethoxy-1,2,3,4-tetrahydroisoquinoline]	+130%
COc1cc2c(cc1OC)C(c1ccc(Cl)cc1)NCC2 (stereo not shown) [Compound 3r, 1-(4′-Chlorophenyl)-6,7-dimethoxy-1,2,3,4-tetrahydroisoquinoline]	+150%

Same assay, conditions: rabbit corneal model, 1% concentration

Structure (SMILES)	Duration of complete anesthesia, times longer than lidocaine [times]
COc1cc(Br)c(C2NCCc3cc(OC)c(OC)cc32)cc1O (stereo not shown) [Compound 3h, 1-(2′-Bromo-5′-hydroxy-4′-methoxyphenyl)-6,7-dimethoxy-1,2,3,4-tetrahydroisoquinoline]	1.7
COc1cc2c(cc1OC)C(c1cccc([N+](=O)[O-])c1)NCC2 (stereo not shown) [Compound 3n, 1-(3′-Nitrophenyl)-6,7-dimethoxy-1,2,3,4-tetrahydroisoquinoline]	2.6

Same assay, conditions: rabbit eyes, concentrations studied

Structure (SMILES)	Local irritant effects on rabbit eyes
COc1cc2c(cc1OC)C(c1cccc([N+](=O)[O-])c1)NCC2 (stereo not shown) [Compound 3n, 1-(3′-Nitrophenyl)-6,7-dimethoxy-1,2,3,4-tetrahydroisoquinoline]	eye irritation and redness; also recorded: reversible irritation and redness of the eyes
COc1cc2c(cc1OC)C(c1ccc(Cl)cc1)NCC2 (stereo not shown) [Compound 3r, 1-(4′-Chlorophenyl)-6,7-dimethoxy-1,2,3,4-tetrahydroisoquinoline]	eye irritation and redness; also recorded: reversible irritation and redness of the eyes
